Results from article PMC12002301, “Discovery and functional characterization of a bombesin-type neuropeptide signaling system in an invertebrate” (Proceedings of the National Academy of Sciences of the …, 2025).

Columns and labels:
[1] = system: CHO-K1 cells transfected with empty pcDNA3.1(+) vector; assay: Luminescence control assay, CHO-K1 cells cotransfected with empty pcDNA3.1(+) vector and Gqs5; assay type: cell-based, Chinese hamster; conditions: empty pcDNA3.1(+) vector and Gqs5, words
ArBNR3 = assay: Luminescence (GFP-aequorin Ca2+) assay, CHO-K1 cells coexpressing ArBNR3 and Gqs5; assay type: cell-based, Asterias rubens; conditions: ArBNR3, words; up to 10^-5 M
Procedure: Having investigated relationships of eleven A. rubens BN-type receptor candidates (ArBNR1-11) with BN-type, ET-type, and CCHa/EP-type receptors in other taxa, ArBNR1 was identified as the best candidate and therefore this was selected for experimental testing. However, two other receptors (ArBNR2 and ArBNR3) were also tested. The methods employed for functional characterization of A. rubens neuropeptide receptors have been described previously ([57]) and a description of the methods employed in this study is included in SI Appendix, SI Methods. […]
Functional characterization of A. rubens BN-type receptors
Two cDNAs encoding ArBNR1 and ArBNR3 were cloned from A. rubens radial nerve cord cDNA using Q5 polymerase (NEB, Cat. no. M0491S) and PCR with specific primers (SI Appendix, Table S5). To facilitate expression of the cloned receptors, the forward primers were designed to contain a partial Kozak consensus sequence (ACC) before the ATG start codon. Then, PCR products were inserted into the mammalian expression vector pcDNA 3.1(+) (Invitrogen, Cat. no.
V79020) that had been cut in advance with the restriction enzyme EcoRV (NEB, Cat. no. […] Successful ligation and the direction of the insert was determined by restriction enzyme digestion and sequencing (TubeSeq service; Eurofins Genomics). […]
identical to residues 18 - 270 of the protein XP_033631283.1, which was determined from genome […]

Substance	peptide-induced luminescence [1]	peptide-induced luminescence (ArBNR3)
EPMPSSLALYIANLSP-NH2 [ArBNP65-81, C-terminally amidated 16-residue peptide predicted to be derived from residues 65 to 81 of ArBNP]	did not trigger luminescence	did not trigger luminescence
NYNRVFGPTY-NH2 [ArBN5-14, C-terminally amidated 10-residue peptide corresponding to the C-terminal region of ArBN]	did not trigger luminescence	did not trigger luminescence
